No end group written: not given here.
Columns and labels:
[1] = test system: peripheral blood mononuclear cells (PBMCs) from grass allergic individuals; assay: In vitro T cell cytokine release assay (IFN-γ, IL-10, IL-13) in PBMC cultures; assay type: cell-based, human; settings: single peptide; for ≧9/28 +ve for one or more cytokine?: group of 28 subjects; for IFN-γ +ve/28 / IL-10 +ve/28 / IL-13 +ve/28: number of 28 grass allergic subjects positive (reading > four times control well)
[2] = Solubility of peptides
[3] = physchem

| Substance | solubility [2] | also measured |
| --- | --- | --- |
| Bio04: Group 5 peptide of Table 2, sequence only in drawing (TALKKAVTAMSEAEKEA) |  | ≧9/28 +ve for one or more cytokine? [1]: Yes; IFN-γ +ve/28 [1]: 12 +ve/28; IL-10 +ve/28 [1]: 8 +ve/28; IL-13 +ve/28 [1]: 5 +ve/28 |
| Bio05: Group 5 peptide of Table 2, sequence only in drawing (NDKFTVFESAFNKALNE) |  | ≧9/28 +ve for one or more cytokine? [1]: Yes; IFN-γ +ve/28 [1]: 11 +ve/28; IL-10 +ve/28 [1]: 1 +ve/28; IL-13 +ve/28 [1]: 5 +ve/28 |
| FIPMKSSWGA [Ber02] | > 20000 µg/mL |  |
| KDSDEFIPMKSSWGAIWR [Ber02B] | > 20000 µg/mL |  |
| KFIPTLVAAVKQAYAAKQ [Bio03A] | > 20000 µg/mL |  |
| KSSWGAIWRIDPKKPLK [Ber02C] | > 20000 µg/mL |  |
| KYDAYVATLTEALR [Bio02A] | > 20000 µg/mL |  |
| LKKAVTAMSEAEK [Bio04A] | > 20000 µg/mL |  |
| NAGFKAAVAAAANAPPK [Rye05C] | 10000 µg/mL |  |
| SGKAFGAMAKKGQED [Ber01, SGKAFGAMAKKGQED] |  | solubility [3]: > 20000 µg/mL |

Continued, in another order:

| solubility [2] | Substance | also measured |
| --- | --- | --- |
| 10000 µg/mL | KKPEVKYAVFEAALTKAIT [Rye09B2] |  |
| 10000 µg/mL | KPEVKYAVFEAALTKAIT [Rye09B1] |  |
| 5000 µg/mL | PEVKYAVFEAALTKAIT [Rye09B] |  |
| 2000 µg/mL | WGAIWRIDTPDKL [Tim04A] |  |
